{"source": "patent US11660279B2", "about": "“Therapeutic agents for treating restless leg syndrome” (INTRABIO LTD, priority 2018, dated 2023)", "key": {"[1]": {"tested_on": "patients with restless leg syndrome (RLS)", "assay": "Symptom relief of RLS by pre-treatment (patient history)", "assay_type": "in vivo, human", "procedure": "(§1) The patient in this case study was a person showing proximal weakness of the lower limb. […] Upon consultation, they reported no sensory symptoms but complained of a restless leg syndrome at night and during resting periods of the day, occurring over the course of the last eight years. […] Serum creatine kinase activity was mildly elevated at 300 IU/L. Iron measurements and all additional lab investigations were normal. The patient was evaluated using the RLS-DI and the patient's IRLS was 32, and thus a moderate to severe RLS was diagnosed. The patient was started on therapy with acetyl-DL-leucine at a dose of 3 g per day for the first week, followed by a dose of 5 g per day for the second week onwards. Within 14 days on acetyl-DL-leucine, the IRLS dropped to 22, and after another 5 weeks, the IRLS declined to 7. Continuation of treatment over more than 28 weeks stabilized the IRLS score at 8.\n(§2) The patient in this case study was a person showing mild proximal weakness of the upper and lower limbs slowly progressive. The patient had been diagnosed (genetically confirmed) with McArdle myopathy about 16 years ago. Upon consultation, they reported no sensory symptoms but complained about a severe fatigue and reduced stamina. The patient further reported a restless leg syndrome at night and during resting periods of the day, occurring over the course of the last 12 years. […] Serum creatine kinase activity was mildly elevated at 200 IU/L; however, the patient had 5 episodes of rhabdomyolysis during the past 20 years. Repeated iron measurements and all additional lab investigations were normal. The patient was evaluated using the RLS-DI and the patient's IRLS was 34, and thus a severe RLS was diagnosed. The patient was started on therapy with acetyl-DL-leucine at a dose of 3 g per day for the first week, followed by a dose of 5 g per day for the second week onwards. Within 21 days on acetyl-DL-leucine, the IRLS dropped to 20, and after another 10 weeks, the IRLS declined to 10. Continuation of treatment over more than 30 weeks stabilized the IRLS score at 10. In addition, the patient's fatigue declined (Fatigue Severit Scale: 9 (minimum) to 63 (maximum)) from 53 to 28.\nThe patient in this case study was a person showing symptoms of RLS and with RLS of unknown etiology. Upon consultation, they reported no sensory symptoms but complained of a restless leg syndrome at night and during resting periods of the day, occurring over the course of the at least 15 years. […] Iron measurements and all additional lab investigations were normal. The patient was evaluated using the RLS-DI and the patient's IRLS was 32, and thus a moderate to severe RLS was diagnosed. The patient was started on therapy with acetyl-DL-leucine at a dose of 3 g per day for the first week, followed by a dose of 5 g per day for the second week onwards. Within 14 days on acetyl-DL-leucine, the IRLS dropped to 8, and after another 2 weeks, the IRLS declined to 6. Continuation of treatment over more than 4 weeks stabilized the IRLS score at 6."}, "[2]": {"tested_on": "patient with RLS and McArdle myopathy", "assay": "Fatigue Severity Scale in patient case study", "assay_type": "in vivo, human", "conditions": "Patient 3; scale 9 (minimum) to 63 (maximum); declined from 53", "source_text": "as §2"}, "[3]": {"tested_on": "patients with cerebellar ataxia / Niemann-Pick Type C", "conditions": "cited from earlier work"}, "[4]": {"tested_on": "patients with restless leg syndrome (RLS)", "assay": "International Restless Legs Syndrome Rating Scale score (IRLS) in patient case studies", "assay_type": "in vivo, human", "design": "key: IRLS score, 0 (no symptoms) to 40; >30 very severe", "source_text": "RLS severity varies and can be measured using one or more of several scales. A widely reported rating scale known as the International Restless Legs Syndrome Study Group Rating Scale (“IRLS”) was developed by the International Restless Legs Syndrome Study Group (“IRLSSG”) (Walters et al., Validation of the 15 International Restless Legs Syndrome Study Group rating scale for restless legs syndrome. Sleep medicine. 2003 Apr 01; 4(2)1 21-32). The IRLS is a 10-item scale with scores ranging from 0 (no symptoms) to 40. Scores>30 are considered very severe, severe (Score 21-30), moderate (scores 11-20) and […], mild. Use of the scale is common for clinical assessment, research and therapeutic trials with RLS.\nSerum creatine kinase activity was only mildly elevated at up to 400 IU/L. The patient was evaluated using the RLS diagnostic index (RLS-DI) (see Walters et al., Sleep Med 2003; 4(2):121-132;). The patient's International Restless Legs Syndrome Rating Scale score (IRLS) was 36, and thus a severe RLS was diagnosed. The patient was started on therapy with acetyl-DL-leucine at a dose of 3 g per day for the first week, followed by a dose of 5 g per day for the second week onwards. Within 14 days on acetyl-DL-leucine, the IRLS dropped to 26, and after another 5 weeks, the IRLS declined to 9. […] Re-introduction of the treatment re-declined the score to 8 after 2 weeks. Continuation of treatment over more than 22 weeks stabilized the IRLS score at 8.\nas §1, §2\nThe patient in this case study was a person showing symptoms of RLS and with RLS of unknown etiology. […]"}, "[5]": {"tested_on": "rat model of an acute unilateral labyrinthectomy", "conditions": "Zwergal 2016, Gunther 2015; cited from earlier work"}, "[6]": {"conditions": "Patient 2, before acetyl-DL-leucine"}, "[7]": {"conditions": "Patient 3, before acetyl-DL-leucine"}, "[8]": {"conditions": "Patient 4, before acetyl-DL-leucine"}}}
{"smiles": "CC(C)C[C@H](CN)CC(=O)O", "note": "[pregabaline]", "values": [{"measurement": "RLS symptom relief by pre-treatment", "setting": "[1]; [6]", "result": "without sustained symptom relief"}, {"measurement": "RLS symptom relief by pre-treatment", "setting": "[1]; [7]", "result": "without sustained symptom relief"}, {"measurement": "RLS symptom relief by pre-treatment", "setting": "[1]; [8]", "result": "without sustained relief"}]}
{"smiles": "N[C@@H](Cc1ccc(O)c(O)c1)C(=O)O", "note": "[L-dopa]", "values": [{"measurement": "RLS symptom relief by pre-treatment", "setting": "[1]; [6]", "result": "without sustained symptom relief"}, {"measurement": "RLS symptom relief by pre-treatment", "setting": "[1]; [7]", "result": "without sustained symptom relief"}, {"measurement": "RLS symptom relief by pre-treatment", "setting": "[1]; [8]", "result": "without sustained relief"}]}
{"smiles": "CC(=O)NC(CC(C)C)C(=O)O", "note": "(racemic) [acetyl-DL-leucine]", "values": [{"measurement": "Fatigue Severit Scale", "setting": "[2]", "result": 28}, {"measurement": "brain metabolism (PET)", "setting": "[3]; PET study in patients with ataxia, Becker-Bense et al. (2015)", "result": "increased metabolism in the midbrain and lower brainstem in responders"}, {"measurement": "cerebellar ataxia benefit", "setting": "[3]; another case series, Pelz et al. (2015)", "result": "did not find benefit"}, {"measurement": "cerebellar ataxia symptoms", "setting": "[3]; case series with cerebellar patients, Strupp et al. (2013)", "result": "symptomatic improvement of cerebellar ataxia"}, {"measurement": "ataxia symptoms", "setting": "[3]; one-month study, 12 patients with Niemann-Pick Type C, Bremova et al. (2015)", "result": "symptomatic improvement of ataxia was shown"}, {"measurement": "temporal gait variability", "setting": "[3]; quantitative gait analysis, patients with cerebellar ataxia, Schniepp et al. (2015)", "result": "improved temporal gait variability"}, {"measurement": "IRLS", "setting": "[4]; Patient 1, baseline 36, after another 5 weeks on 5 g per day", "result": 9}, {"measurement": "IRLS", "setting": "[4]; Patient 1, baseline IRLS 36, 3 g per day first week then 5 g per day, within 14 days", "result": 26}, {"measurement": "IRLS", "setting": "[4]; Patient 1, after interruption of 4 weeks of the treatment after week 12", "result": 28}, {"measurement": "IRLS", "setting": "[4]; Patient 1, continuation of treatment over more than 22 weeks", "result": 8}, {"measurement": "IRLS", "setting": "[4]; Patient 1, re-introduction of the treatment, after 2 weeks", "result": 8}, {"measurement": "IRLS", "setting": "[4]; Patient 2, baseline 32, after another 5 weeks", "result": 7}, {"measurement": "IRLS", "setting": "[4]; Patient 2, baseline IRLS 32, 3 g per day first week then 5 g per day, within 14 days", "result": 22}, {"measurement": "IRLS", "setting": "[4]; Patient 2, continuation of treatment over more than 28 weeks", "result": 8}, {"measurement": "IRLS", "setting": "[4]; Patient 3, baseline 34, after another 10 weeks", "result": 10}, {"measurement": "IRLS", "setting": "[4]; Patient 3, baseline IRLS 34, 3 g per day first week then 5 g per day, within 21 days", "result": 20}, {"measurement": "IRLS", "setting": "[4]; Patient 3, continuation of treatment over more than 30 weeks", "result": 10}, {"measurement": "IRLS", "setting": "[4]; Patient 4, baseline 32, after another 2 weeks", "result": 6}, {"measurement": "IRLS", "setting": "[4]; Patient 4, baseline IRLS 32, 3 g per day first week then 5 g per day, within 14 days", "result": 8}, {"measurement": "IRLS", "setting": "[4]; Patient 4, continuation of treatment over more than 4 weeks", "result": 6}]}
{"smiles": "CC(=O)N[C@@H](CC(C)C)C(=O)O", "note": "[N-acetyl-L-leucine]", "values": [{"measurement": "postural compensation", "setting": "[5]", "result": "significant effect"}]}
